Reference: patent EP4653000A1, “INHIBITORS OF PSEUDOMONAS AERUGINOSA ELASTASE (LASB) FOR THE TREATMENT OF PSEUDOMONAS KERATITIS” (Helmholtz-Zentrum für Infektionsforschung GmbH, priority 2024, dated 2025)

Legend:
[1] = test system: P. aeruginosa strain PA54; experiment: Antibiotic susceptibility / minimum inhibitory concentration (MIC) of strain PA54; type: cell-based, Pseudomonas aeruginosa; settings: strain PA54, clinical isolate from eye wound swab
Description: Pseudomonas aeruginosa. The P. aeruginosa strain PA54 was employed to induce an experimental bacterial keratitis in the aforementioned C57BL/6N mice. The strain PA54 was isolated from a human infection (wound swab from the eye) and collected at Saarland University Medical Center's Institute for Medical Microbiology and Hygienics (IMMH) in 2009.

[2] = test system: P. aeruginosa strain PA54; experiment: LasB and desmosin levels in eye homogenate in the experimental bacterial keratitis model (LC-MS/MS); type: in vivo, C57BL/6N mice; settings: for LasB levels in eye homogenate: compared with vehicle (highest levels), p < 0.05, Figure 2 (b)
[3] = Concentration of HIPS-7178 in eye homogenate and serum in the keratitis model (HPLC-MS/MS); type: in vivo, C57BL/6N mice; settings: topical 5 µL of 1 mg/mL every eight hours along 72h; Figure 2 (a)
Experimental: Animals. The animal experiments were approved by Saarland University's Animal Welfare Committee (Application number: 17/2021) and conducted in accordance with German and European recommendations and guidelines for the ethical use of animals. The laboratory animals were all C57BL/6N female eight to eleven months old mice. Unlimited access to water and show was secured. Temperature was closely maintained around 22 °C and relative air humidity around 50%. Light and darkness alternated at twelve-hour intervals. All laboratory animals were purchased from Charles River GmbH, Sulzfeld, Germany.
Infection procedure. Anesthesia and infection were performed as previously published. […]
Documentation and Treatment. […] Keratitis severity was visualized using a stereomicroscope (Leitz ELVAR, Wetzlar, Germany) at 16× magnification combined with a high-resolution microscope digital camera (Seben GmbH, Berlin, Germany) and evaluated using a previously described clinical scoring scheme (Lyu et al., 2020). […] The body weight of the mice was measured daily and used as welfare indicator. General condition and behavior were also recorded daily. […]

Molecule	sensibility of PA54 (multidrug-resistant classification) [1]	LasB levels in eye homogenate [2]	further results
gentamicin	lacking sensibility		
CO/N=C(\C(=O)N[C@@H]1C(=O)N2C(C(=O)[O-])=C(C[N+]3(C)CCCC3)CS[C@H]12)c1csc(N)n1 [cefepime]	lacking sensibility		
C[C@@H](O)[C@H]1C(=O)N2C(C(=O)O)=C(S[C@@H]3CN[C@H](C(=O)N(C)C)C3)[C@H](C)[C@H]12 [meropenem]		reduced levels	Desmosin levels in eye ([2]; compared with uninfected control, Figure 2 (c)): similarly high levels as uninfected group
CC(=O)c1ccc(NC(=O)[C@@H](NC(=O)C(CC(C)C)P(=O)(O)O)C(C)C)cc1 (some centres unmarked) [HIPS-7178]		reduced levels	HIPS-7178 concentrations in eye homogenate and serum [3]: similarly high
CC(C)(O/N=C(\C(=O)N[C@@H]1C(=O)N2C(C(=O)[O-])=C(C[n+]3ccccc3)CS[C@H]12)c1csc(N)n1)C(=O)O [ceftazidime]	lacking sensibility		
C[C@@H]1O[C@@H]1P(=O)(O)O [fosfomycin]	lacking sensibility		
